Experimental data from paper PMC4919791, “Effect of curcumin analogs onα-synuclein aggregation and cytotoxicity” (Scientific Reports, 2016).

Legend:
[1] = target: T1, preformed α-Syn amyloid fibrils (Homo sapiens, UniProt P37840); assay: MTT assay of preformed α-Syn fibrils incubated with curcumin analogs; type: cell-based; settings: fibrils incubated with analog 48 h at 37 °C; SH-SY5Y cells
T1 construct: made in house; host or cells: Escherichia coli BL21
Procedure: (§1) The concentration of the fibrils was determined by subtraction of supernatant concentration from the original concentration of α-Syn kept for fibrillation.

preformed α-Syn fibrils [2] = target: T2, preformed α-Syn fibrils (Homo sapiens, UniProt P37840); assay: LDH cytotoxicity assay of preformed α-Syn fibrils incubated with curcumin analogs; type: cell-based; settings: fibrils incubated with analog 48 h; SH-SY5Y cells
T2 construct: made in house; host or cells: Escherichia coli BL21
Procedure: as §1
(§2) The percent LDH release was plotted as difference in the absorbance value of 490 nm and 690 nm, considering 100% release for the TritonX-100 treated cells.

preformed α-Syn fibrils [3] = target: T2, preformed α-Syn fibrils; assay: Calcein-AM/EthD-1 staining, preformed α-Syn fibrils with analogs; type: cell-based; settings: SH-SY5Y cells
Procedure: Previously it has been shown that curcumin decreases the toxicity of α-Syn amyloid fibrils by reducing the exposed hydrophobic surfaces. To delineate whether curcumin analogs can decrease the toxicity of preformed α-Syn fibrils, we performed cell viability assay. For this, 10-days incubated α-Syn solution was centrifuged (fibril formation was confirmed by electron microscopy (EM)) and the pelleted fibrils were then re-dissolved in same volume of 20 mM MES buffer (pH 6.0, 0.01% NaN3). The concentration of the fibrils was determined by subtraction of supernatant concentration from the original concentration of α-Syn kept for fibrillation. […] After incubation, we measured the effect of curcumin analogs on the toxicity of preformed α-Syn amyloid fibrils by MTT reduction assay on SH-SY5Y cells. […]
(§3) For this assay, SH-SY5Y cells were seeded in 96 well plate and incubated with identical concentrations of oligomers/fibrils (as used in MTT assay) in absence and presence of curcumin and its analogs for 36 h in 5% CO2 incubator at 37 °C. […] Calcein-AM/Ethidium homodimer-1 signal was then checked and imaged with an inverted fluorescence microscope (Leica DMi8). […] The free calcein emits strong fluorescence signal at ~535 nm, which could be easily observed in the green channel of a microscope. […]

preformed α-Syn fibrils [4] = target: T2, preformed α-Syn fibrils; assay: CD spectroscopy of preformed α-Syn fibrils with analogs; type: biochemical; settings: 0 h and 48 h of incubation
Procedure: Further, the effect of curcumin analogs on the secondary structure of protein in preformed amyloid fibrils was studied by circular dichroism (CD) spectroscopy at 0 h and after 48 h of incubation. […] To further validate this, Fourier transform infrared spectroscopy (FTIR) was also performed with these samples, where spectra were recorded from 1500 to 1800 cm^−1.The region characteristic of protein secondary structures (1600–1700 cm^−1) was deconvoluted and the peaks were assigned according to published reports. FTIR spectra in the 1600–1700 cm^−1 region of preformed α-Syn fibrils in absence and presence of curcumin and its analogs are presented in Figs 4B and S4 and their percentage of secondary structures are shown in Table-S1.
20 μl of protein solution from 80 μM stock was diluted to 200 μl in 20 mM MES buffer, pH 6.0 with 0.01% NaN3 such that final protein concentration becomes 8 μM. The protein solution was then placed into a quartz cell (Hellma, Forest Hills, NY) of 0.1 cm path-length. Spectra were recorded using JASCO-810 instrument at 25 °C. Spectra acquisition was over the wavelength range of 198–260 nm with the scan speed of 100 nm/min, bandwidth 1 nm, data pitch 1 nm and response time of 1 sec. Processing of raw data was done by subtraction of buffer spectra and subsequently smoothing according to the manufacturer’s instructions.

α-Syn oligomers [5] = target: T3, α-Syn oligomers (Homo sapiens, UniProt P37840); assay: LDH cytotoxicity assay of α-Syn oligomers with C1/C6; type: cell-based; settings: oligomers incubated 30 minutes with compound; SH-SY5Y cells
T3 construct: made in house; host or cells: Escherichia coli BL21
From the text: (§4) It has been shown that α-Syn mutants that form oligomers preferentially are more toxic and kill dopaminergic neurons in animal models as compared to fibril forming mutants. Therefore, compounds that effectively reduce the toxicity of oligomers could be beneficial for the treatment of PD. In the present study, we tested the effect of curcumin and its analogs on the toxicity, hydrophobic exposure and morphology of α-Syn oligomers isolated using size exclusion chromatography (SEC). The toxicity of α-Syn oligomers in presence and absence of curcumin/analogs were initially tested using MTT assay. […] To further validate the effectiveness of C6 to reduce the cytotoxicity of α-Syn oligomers, we also performed LDH cytotoxicity assay and Calcein-AM/Ethidium homodimer-1 staining. […] As previously it has been proposed that curcumin reduces the oligomers toxicity by altering their exposed hydrophobic surface, we also measured the hydrophobic surface exposure of preformed α-Syn oligomers incubated with curcumin and its analogs.
10 μM of α-Syn oligomers/fibrils incubated with and without 5 μM curcumin/analogs were added to SH-SY5Y cells (10,000 cells/well) in 96 well plate. […] The percent LDH release was plotted as difference in the absorbance value of 490 nm and 690 nm, considering 100% release for the TritonX-100 treated cells.

α-Syn oligomers [6] = target: T3, α-Syn oligomers; assay: Calcein-AM/EthD-1 staining, α-Syn oligomers with C1/C6; type: cell-based; settings: SH-SY5Y cells
From the text: It has been shown that α-Syn mutants that form oligomers preferentially are more toxic and kill dopaminergic neurons in animal models as compared to fibril forming mutants. Therefore, compounds that effectively reduce the toxicity of oligomers could be beneficial for the treatment of PD. In the present study, we tested the effect of curcumin and its analogs on the toxicity, hydrophobic exposure and morphology of α-Syn oligomers isolated using size exclusion chromatography (SEC). The toxicity of α-Syn oligomers in presence and absence of curcumin/analogs were initially tested using MTT assay. […] As previously it has been proposed that curcumin reduces the oligomers toxicity by altering their exposed hydrophobic surface, we also measured the hydrophobic surface exposure of preformed α-Syn oligomers incubated with curcumin and its analogs.
as §3

α-Syn oligomers [7] = target: T3, α-Syn oligomers; assay: TEM of α-Syn oligomers with C1/C6; type: biochemical
From the text: as §4
5 μl of various species of α-Syn (50 μM) incubated in absence and presence of curcumin and its analogs were spotted on carbon coated formavar grid and air dried for 10 min. The samples were then washed thrice with autoclaved MQ. The samples were then stained with 10 μl of uranyl formate 1% (w/v) and incubated in dark for 10 min. […]

α-Syn fibrils [8] = target: T4, α-Syn fibrils (Homo sapiens, UniProt P37840); assay: MTT assay of α-Syn fibrils formed in presence of curcumin analogs; type: cell-based; settings: 10 μM α-Syn fibril, 36 h, SH-SY5Y
T4 construct: made in house; host or cells: Escherichia coli BL21
Procedure: Next, we measured the effect of α-Syn fibrils formed in presence and absence of curcumin analogs on the viability of SH-SY5Y neuronal cell line by MTT reduction assay. SH-SY5Y cells were incubated with 10 μM α-Syn fibril formed in presence of various curcumin analogs for 36 h. […] However, the extent of decrease in toxicity was different for different analogs. […] The calcein-AM/ethidium homodimer-1 staining also further corroborated the results obtained from MTT and LDH assay (Fig. 8C).

α-Syn fibrils [9] = target: T4, α-Syn fibrils; assay: LDH cytotoxicity assay of α-Syn fibrils formed in presence of curcumin analogs; type: cell-based; settings: SH-SY5Y cells
From the text: as §2

[10] = Stability of curcumin analogs by time-dependent intrinsic fluorescence; type: physicochemical; settings: 20 mM MES buffer pH 6.0, 0.01% NaN3, 37 °C
Procedure: 1μl of this DMSO-stock solution was transferred to 2 ml microfuge tube and 1 ml of 20 mM MES buffer (pH 6.0, 0.01% NaN3) was added to it and mixed immediately by vortexing. These solutions were incubated at 37 °C and their respective fluorescence was taken at certain time intervals. The fluorescence was monitored by placing the 200 μl of the incubated solution in 0.1 cm path-length quartz cuvette (Hellma, Forest Hills, NY) and the spectra were acquired by using FluoroMax-4 spectrofluorometer (HORIBA JobinYvon) instrument with excitation and emission slit widths of 5 nm and 10 nm respectively. The fluorescence intensity maxima for each sample were plotted against time of incubation and fitted in exponential decay 1 in the Origin 8.0 software according to manufacture’s protocol (Fig. 2A).

preformed α-Syn fibrils [11] = target: T2, preformed α-Syn fibrils; assay: Nile red binding assay on preformed α-Syn fibrils; type: biochemical; settings: fibrils incubated with analog 48 h
Procedure: (§5) Stock solution of NR was prepared in DMSO (1 mM). […] Similar experimental protocol was used for NR binding to oligomers. FluoroMax-4 spectrofluorometer (HORIBA JobinYvon) was used with excitation and emission slit widths of 5 nm. The maximum NR fluorescence obtained at ~630 nm was used for plotting bar diagrams.

α-Syn oligomers [12] = target: T3, α-Syn oligomers; assay: MTT assay of α-Syn oligomers pre-incubated with curcumin analogs; type: cell-based; settings: 10 μM α-Syn + 5 μM analog, 30 min RT; SH-SY5Y cells
From the text: as §4
For isolation of α-Syn oligomers, we used previously established protocol. Briefly, lyophilized α-Syn powder was dissolved in MES buffer, pH 6.0, 0.01% NaN3, at a concentration of 50 mg/ml. The dissolved protein was then centrifuged at 14,000 × g for 30 min at 4 °C using a table top microcentrifuge (HITACHI, himac CT15RE, Japan). […]

[13] = target: T5, preformed α-Syn oligomers (Homo sapiens, UniProt P37840); assay: Nile red binding assay on α-Syn oligomers; type: biochemical; settings: compared to α-Syn oligomers alone
T5 construct: made in house; host or cells: Escherichia coli BL21
Procedure: Therefore, compounds that effectively reduce the toxicity of oligomers could be beneficial for the treatment of PD.
as §5

α-Syn = target: T6, α-Syn (Homo sapiens, UniProt P37840); assay: TEM of α-Syn aggregates formed in presence of analogs; type: biochemical
T6 construct: made in house; host or cells: Escherichia coli BL21
Procedure: Subsequently, we examined the effect of these analogs on α-Syn oligomerization by time dependent static light scattering experiment. […] After aggregation, TEM study was done to determine the effects of these analogs on the morphology of the resultant aggregates.
The samples were then washed thrice with autoclaved MQ. The samples were then stained with 10 μl of uranyl formate 1% (w/v) and incubated in dark for 10 min. The EM image of each sample was acquired at 120 kV with magnifications in the range of 26,000X and 43,000X using a transmission electron microscope (TECNAI12 D312 FEI, Netherlands).

In the case of `COc1cc(/C=C/C(=O)CC(=O)/C=C/c2ccc(O)c(OC)c2)ccc1O` [C1, Curcumin (diferuloylmethane), reference compound], the “effect on toxicity of preformed α-Syn fibrils, MTT” value [1] is reported as “reduction in toxicity”, the “effect on cell death by preformed α-Syn fibrils, LDH” value (preformed α-Syn fibrils [2]) is reported as “decrease in cell death” and the “Calcein-AM/EthD-1 staining with preformed α-Syn fibrils” value (preformed α-Syn fibrils [3]) is reported as “less nuclear staining by EthD-1”. The “secondary structure of preformed α-Syn fibrils by CD” value (preformed α-Syn fibrils [4]) was “remains unaltered”, the “LDH release with α-Syn oligomers” value (α-Syn oligomers [5]) was “reduced LDH release” and the “ethidium homodimer staining with α-Syn oligomers” value (α-Syn oligomers [6]) was “less ethidium homodimer staining”. The “morphology of α-Syn oligomers (TEM)” value (α-Syn oligomers [7]) was “significantly altered their morphology”, the “toxicity of α-Syn fibrils formed in presence of analog, MTT” value (α-Syn fibrils [8]) was “less toxicity to cells” and the “toxicity of α-Syn fibrils formed in presence of analog, LDH” value (α-Syn fibrils [9]) was “less toxicity to cells”.
With `COc1ccc(/C=C/C(=O)CC(=O)/C=C/c2ccc(OC)c(OC)c2)cc1OC` [C2] the “relative stability compared with curcumin (slope of normalized fluorescence versus time)” value [10] was “less stable than curcumin”, the “effect on cell death by preformed α-Syn fibrils, LDH” value (preformed α-Syn fibrils [2]) was “decrease in cell death” and the “Nile red fluorescence of preformed α-Syn fibrils (exposed hydrophobic surface)” value (preformed α-Syn fibrils [11]) was “less NR fluorescence for fibrils as compared to curcumin”. The “effect on toxicity of α-Syn oligomers, MTT” value (α-Syn oligomers [12]) was “slight reduction in the toxicity”, the “Nile red fluorescence of α-Syn oligomers (exposed hydrophobic surface)” value [13] was “increase in NR fluorescence” and the “average fibril thickness of fibrils formed in presence of analog” value (α-Syn) was “more in comparison to fibrils formed in presence of other analogs”.
